{"source": "patent US10703764B2", "about": "“Benzopiperazine compositions as BET bromodomain inhibitors” (FORMA Therapeutics, Inc., priority 2013, dated 2020)", "key": {"BRD4 BD2": {"molecular_target": "T1, BRD4 BD2 (Homo sapiens, UniProt O60885)", "T1 construct": "made in house", "experiment": "AlphaScreen binding assay, BRD4 Bromodomain 2", "in_short": "(§1)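 An AlphaScreen competition format was used with His-BRD4 BD1 or BD2 and biotin-H4 K5/8/12/16-acetyl peptide, each at matched final levels of 50 nM (BD1) or 100 nM (BD2). Incubation in HEPES/NaCl buffer with 0.1% BSA and 0.01% Triton X-100 ran ≥1 h before IC50 determination.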"}, "BRD4 BD1": {"molecular_target": "T2, BRD4 BD1 (Homo sapiens, UniProt O60885)", "T2 construct": "made in house", "experiment": "AlphaScreen binding assay, BRD4 Bromodomain 1", "in_short": "as §1"}, "MV4-11 cells": {"tested_on": "MV4-11 cells", "experiment": "Oncology cell growth assay (3-day proliferation, CellTiter-Glo)", "assay_type": "cell-based", "details": "Homo sapiens, AML cell line MV4-11, 72 hours, compounds grouped by IC50 range, read-out: MV4-11 IC50 (inhibition of proliferation, gIC50)", "in_short": "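Luminescence from CellTiter-Glo served as the growth read-out after MV4-11 cells (3000/well) were cultured with compound for 72 hours. Final concentrations spanned 10 to 0.0045 μM in 3-fold steps. gIC50 values were derived by four-parameter logistic fitting relative to DMSO and cell-free controls.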"}}, "note": "Like-named read-outs stand apart in the source and are kept apart here.", "data": [{"smiles": "CC(=O)N1c2ccc(-c3cccc(NS(=O)(=O)N(C)C)c3)cc2N(C(=O)OC(C)C)C[C@@H]1C", "note": "[Example I-1146]", "values": [{"measurement": "IC50", "setting": "BRD4 BD2", "result": "50 to 500", "unit": "nM"}, {"measurement": "IC50", "setting": "BRD4 BD1", "result": "100 to 1000", "unit": "nM"}, {"measurement": "IC50", "setting": "MV4-11 cells; MV4-11, 72 h", "result": "100 to 500", "unit": "nM"}]}, {"smiles": "CC(=O)N1c2ccc(-c3cnn(C4CCOCC4)c3)cc2N(C(=O)OC2CCCC2)C[C@@H]1C", "note": "[Example I-1147]", "values": [{"measurement": "IC50", "setting": "BRD4 BD2", "result": "< 50", "unit": "nM"}, {"measurement": "IC50", "setting": "BRD4 BD1", "result": "< 100", "unit": "nM"}, {"measurement": "IC50", "setting": "MV4-11 cells; MV4-11, 72 h", "result": "< 100", "unit": "nM"}]}, {"smiles": "CC(=O)N1c2ccc(-c3cnn(C4CCCS(=O)(=O)C4)c3)cc2N(C(=O)OC2CCCC2)C[C@@H]1C", "note": "(stereo partly drawn) [Example I-1148]", "values": [{"measurement": "IC50", "setting": "BRD4 BD2", "result": "< 50", "unit": "nM"}, {"measurement": "IC50", "setting": "BRD4 BD1", "result": "100 to 1000", "unit": "nM"}, {"measurement": "IC50", "setting": "MV4-11 cells; MV4-11, 72 h", "result": "100 to 500", "unit": "nM"}]}, {"smiles": "CC(=O)N1c2ccc(-c3cnn(C4CCNCC4)c3)cc2N(C(=O)Oc2ccc(F)cc2)C[C@@H]1C", "note": "[Example I-1149]", "values": [{"measurement": "IC50", "setting": "BRD4 BD2", "result": "50 to 500", "unit": "nM"}, {"measurement": "IC50", "setting": "BRD4 BD1", "result": "100 to 1000", "unit": "nM"}, {"measurement": "IC50", "setting": "MV4-11 cells", "result": "< 100", "unit": "nM"}]}, {"smiles": "CC(=O)N1c2ccc(-c3cnn(C4CNC4)c3)cc2N(C(=O)Oc2ccc(F)cc2)C[C@@H]1C", "note": "[Example I-1150]", "values": [{"measurement": "IC50", "setting": "BRD4 BD2", "result": "< 50", "unit": "nM"}, {"measurement": "IC50", "setting": "BRD4 BD1", "result": "100 to 1000", "unit": "nM"}, {"measurement": "IC50", "setting": "MV4-11 cells", "result": "100 to 500", "unit": "nM"}]}, {"smiles": "COC(=O)N1c2ccc(-c3cnn(C4CCNCC4)c3)cc2N(C(=O)Oc2ccc(F)cc2)C[C@@H]1C", "note": "[Example I-1151]", "values": [{"measurement": "IC50", "setting": "BRD4 BD2", "result": "50 to 500", "unit": "nM"}, {"measurement": "IC50", "setting": "BRD4 BD1", "result": "100 to 1000", "unit": "nM"}, {"measurement": "IC50", "setting": "MV4-11 cells", "result": "100 to 500", "unit": "nM"}]}, {"smiles": "CC(=O)N1c2ccc(-c3cccc(N4CCCS4(=O)=O)c3)cc2N(C(=O)C2CC2)C[C@@H]1C", "note": "[Example I-1152]", "values": [{"measurement": "IC50", "setting": "BRD4 BD2", "result": "50 to 500", "unit": "nM"}, {"measurement": "IC50", "setting": "BRD4 BD1", "result": "1000 to 10000", "unit": "nM"}, {"measurement": "IC50", "setting": "MV4-11 cells; MV4-11, 72 h", "result": "100 to 500", "unit": "nM"}]}, {"smiles": "CC(=O)N1c2ccc(-c3cccc(N4CCCS4(=O)=O)c3)cc2N(C(=O)OC(C)C)C[C@@H]1C", "note": "[Example I-1153]", "values": [{"measurement": "IC50", "setting": "BRD4 BD2", "result": "50 to 500", "unit": "nM"}, {"measurement": "IC50", "setting": "BRD4 BD1", "result": "100 to 1000", "unit": "nM"}, {"measurement": "IC50", "setting": "MV4-11 cells; MV4-11, 72 h", "result": "100 to 500", "unit": "nM"}]}, {"smiles": "CC(=O)N1c2ccc(-c3ccc(N4CCCS4(=O)=O)c(F)c3)cc2N(C(=O)C2CCC2)C[C@@H]1C", "note": "[Example I-1154]", "values": [{"measurement": "IC50", "setting": "BRD4 BD2", "result": "50 to 500", "unit": "nM"}, {"measurement": "IC50", "setting": "BRD4 BD1", "result": "1000 to 10000", "unit": "nM"}, {"measurement": "IC50", "setting": "MV4-11 cells; MV4-11, 72 h", "result": "> 500", "unit": "nM"}]}, {"smiles": "CCOC(=O)N1C[C@H](C)N(C(C)=O)c2ccc(-c3ccc(N4CCCS4(=O)=O)c(F)c3)cc21", "note": "[Example I-1155]", "values": [{"measurement": "IC50", "setting": "BRD4 BD2", "result": "50 to 500", "unit": "nM"}, {"measurement": "IC50", "setting": "BRD4 BD1", "result": "100 to 1000", "unit": "nM"}, {"measurement": "IC50", "setting": "MV4-11 cells; MV4-11, 72 h", "result": "> 500", "unit": "nM"}]}, {"smiles": "CC(=O)N1c2ccc(-c3ccc(N4CCCS4(=O)=O)c(F)c3)cc2N(C(=O)OC(C)C)C[C@@H]1C", "note": "[Example I-1156]", "values": [{"measurement": "IC50", "setting": "BRD4 BD2", "result": "50 to 500", "unit": "nM"}, {"measurement": "IC50", "setting": "BRD4 BD1", "result": "100 to 1000", "unit": "nM"}, {"measurement": "IC50", "setting": "MV4-11 cells; MV4-11, 72 h", "result": "100 to 500", "unit": "nM"}]}, {"smiles": "CC(=O)N1c2ccc(-c3ccc4c(c3)CCCN4S(C)(=O)=O)cc2N(C(=O)C2CC2)C[C@@H]1C", "note": "[Example I-1157]", "values": [{"measurement": "IC50", "setting": "BRD4 BD2", "result": "< 50", "unit": "nM"}, {"measurement": "IC50", "setting": "BRD4 BD1", "result": "100 to 1000", "unit": "nM"}, {"measurement": "IC50", "setting": "MV4-11 cells; MV4-11, 72 h", "result": "100 to 500", "unit": "nM"}]}, {"smiles": "CC(=O)N1c2ccc(-c3ccc4c(c3)CCCN4S(C)(=O)=O)cc2N(C(=O)C2CCC2)C[C@@H]1C", "note": "[Example I-1158]", "values": [{"measurement": "IC50", "setting": "BRD4 BD2", "result": "50 to 500", "unit": "nM"}, {"measurement": "IC50", "setting": "BRD4 BD1", "result": "100 to 1000", "unit": "nM"}, {"measurement": "IC50", "setting": "MV4-11 cells; MV4-11, 72 h", "result": "> 500", "unit": "nM"}]}, {"smiles": "CCOC(=O)N1C[C@H](C)N(C(C)=O)c2ccc(-c3ccc4c(c3)CCCN4S(C)(=O)=O)cc21", "note": "[Example I-1159]", "values": [{"measurement": "IC50", "setting": "BRD4 BD2", "result": "50 to 500", "unit": "nM"}, {"measurement": "IC50", "setting": "BRD4 BD1", "result": "100 to 1000", "unit": "nM"}, {"measurement": "IC50", "setting": "MV4-11 cells; MV4-11, 72 h", "result": "100 to 500", "unit": "nM"}]}, {"smiles": "CC(=O)N1c2ccc(-c3ccc4c(c3)CCCN4S(C)(=O)=O)cc2N(C(=O)OC(C)C)C[C@@H]1C", "note": "[Example I-1160]", "values": [{"measurement": "IC50", "setting": "BRD4 BD2", "result": "50 to 500", "unit": "nM"}, {"measurement": "IC50", "setting": "BRD4 BD1", "result": "100 to 1000", "unit": "nM"}, {"measurement": "IC50", "setting": "MV4-11 cells; MV4-11, 72 h", "result": "100 to 500", "unit": "nM"}]}, {"smiles": "CC(=O)N1c2ccc(-c3cccc(N4CCCS4(=O)=O)c3)cc2N(C(=O)C2CCC2)C[C@@H]1C", "note": "[Example I-1161]", "values": [{"measurement": "IC50", "setting": "BRD4 BD2", "result": "50 to 500", "unit": "nM"}, {"measurement": "IC50", "setting": "BRD4 BD1", "result": "1000 to 10000", "unit": "nM"}, {"measurement": "IC50", "setting": "MV4-11 cells; MV4-11, 72 h", "result": "> 500", "unit": "nM"}]}, {"smiles": "CCOC(=O)N1C[C@H](C)N(C(C)=O)c2ccc(-c3cccc(N4CCCS4(=O)=O)c3)cc21", "note": "[Example I-1162]", "values": [{"measurement": "IC50", "setting": "BRD4 BD2", "result": "50 to 500", "unit": "nM"}, {"measurement": "IC50", "setting": "BRD4 BD1", "result": "100 to 1000", "unit": "nM"}, {"measurement": "IC50", "setting": "MV4-11 cells; MV4-11, 72 h", "result": "> 500", "unit": "nM"}]}, {"smiles": "CCOC(=O)N1C[C@H](C)N(C(C)=O)c2ccc(-c3cc(N4CCCS4(=O)=O)cc(C(F)(F)F)c3)cc21", "note": "[Example I-1165]", "values": [{"measurement": "IC50", "setting": "BRD4 BD2", "result": "50 to 500", "unit": "nM"}, {"measurement": "IC50", "setting": "BRD4 BD1", "result": "1000 to 10000", "unit": "nM"}, {"measurement": "IC50", "setting": "MV4-11 cells; MV4-11, 72 h", "result": "> 500", "unit": "nM"}]}, {"smiles": "CC(=O)N1c2ccc(-c3cc(N4CCCS4(=O)=O)cc(C(F)(F)F)c3)cc2N(C(=O)OC(C)C)C[C@@H]1C", "note": "[Example I-1166]", "values": [{"measurement": "IC50", "setting": "BRD4 BD2", "result": "50 to 500", "unit": "nM"}, {"measurement": "IC50", "setting": "BRD4 BD1", "result": "100 to 1000", "unit": "nM"}, {"measurement": "IC50", "setting": "MV4-11 cells; MV4-11, 72 h", "result": "> 500", "unit": "nM"}]}, {"smiles": "COc1ccc(-c2ccc3c(c2)N(C(=O)C2CC2)C[C@H](C)N3C(C)=O)cc1N1CCCS1(=O)=O", "note": "[Example I-1167]", "values": [{"measurement": "IC50", "setting": "BRD4 BD2", "result": "50 to 500", "unit": "nM"}, {"measurement": "IC50", "setting": "BRD4 BD1", "result": "100 to 1000", "unit": "nM"}, {"measurement": "IC50", "setting": "MV4-11 cells; MV4-11, 72 h", "result": "100 to 500", "unit": "nM"}]}]}
